According to US20180110796A1, “COMPOSITIONS AND METHODS FOR THE TREATMENT OF HBV INFECTION” (Spring Bank Pharmaceuticals, Inc., priority 2015, published 2018):

Key:
[1] = system: HBV; experiment: Dose-ranging study in the HBV transgenic mouse model; assay type: in vivo; conditions: once-daily oral 1 to 100 mg/kg/day for 14 days
[2] = system: woodchuck hepatitis virus (WHV); experiment: Antiviral efficacy of oral Formula (IIa) in chronic WHV carrier woodchucks (Example 2); assay type: in vivo, woodchuck (Marmota monax); conditions: for weeks per approximately 1 log10 decline of serum WHV DNA: 12-week treatment; for average reduction of serum WHV DNA at the end of treatment: week 12, vs T0; for maximum reduction of hepatic WHV DNA RI from pretreatment level / maximum reduction of hepatic WHV RNA from pretreatment level / maximum reduction of hepatic WHV cccDNA from pretreatment level: after 12 weeks; for maximum reduction of serum WHsAg: after 12 weeks of treatment
[3] = system: woodchuck hepatitis virus (WHV); experiment: Formula (IIa) in combination with entecavir, sequential oral treatment of chronic WHV carrier woodchucks (Example 3); assay type: in vivo, woodchuck (Marmota monax)
Source text: Ten (10) woodchucks chronically infected with WHV were used. Woodchucks were born in captivity and were inoculated at 3 days of age with cWHV7P2a inoculum, then reared until 11 months of age. Prior to the study, woodchucks were confirmed as established chronic carriers of WHV based on established criteria including the presence of WHV surface antigen (WHsAg), antibody against […], and WHV DNA. Woodchucks used in the study were of both gender and approximately between 12 and 14 months of age at the start of the study.
Two (2) groups of five (5) chronic WHV carrier woodchucks each were used in the study:
Group 1 was orally treated for 4 weeks with ETV at a daily dose of 0.5 mg/kg starting at T0, followed by add-on treatment with Formula (IIa) for 12 weeks at a daily dose of 30 mg/kg. Woodchucks were then followed for a total of 24 weeks.
Group 2 was orally treated for 12 weeks with Formula (IIa) at a daily dose of 30 mg/kg starting at T0, followed by add-on treatment with ETV for 4 weeks at a daily dose of 0.5 mg/kg. Woodchucks were then also followed for a total of 24 weeks.
Formula (IIa) was supplied as a pre-weighed powder in individual containers. An amount of powder sufficient to treat all 10 pre-weighed woodchucks per day with Formula (IIa) was mixed directly with woodchuck diet powder (Dyets Inc., Bethlehem, Pa.) and then suspended with HPLC water. The drug was orally administered with a dose syringe at T0 (Group 2) or after 4 weeks of treatment with ETV (Group 1), and thereafter every day for 12 weeks (84 days). Drug dosing was then followed by an extra 2 ml of woodchuck liquid diet to ensure complete consumption of Formula (IIa).
ETV was provided as powder. An amount of powder sufficient to treat all 10 woodchucks per day was suspended in isotonic saline at a concentration of 0.5 mg/ml. A volume (ml) of drug solution equivalent to the body weight (kg) of an individual woodchuck was then mixed with approximately 3-5 ml of woodchuck liquid diet and administered orally with a dose syringe at T0 (Group 1) or after 12 weeks of treatment with Formula (IIa) (Group 2), and thereafter every day for 4 weeks (28 days). ETV dosing was followed by an extra 2 ml of woodchuck liquid diet to ensure complete consumption of drug.
Prior to administration of Formula (IIa) or ETV at T0, then weekly until the end of the study at week 24, whole blood samples were drawn from each woodchuck under ketamine/xylazine anesthesia for determinations of serum WHV DNA, WHsAg, and anti-WHs (see Summary Table below). […] Blood samples were kept at room temperature following collection and serum harvested upon observation of clot retraction. Harvested serum was transferred to microcentrifuge tubes and stored frozen at −70° C. until use.
The induction of an innate immune response in peripheral blood and liver of woodchucks by combination treatment with Formula (IIa) and ETV were determined via real time PCR-based assays. Whole blood samples were obtained prior to the start of treatment with Formula (IIa) at T0, and then at weeks 4, 10, 16, 20, and 24 (Group 1) or at weeks 6, 12, 16, 20, and 24 (Group 2) (see Summary Table below). Whole blood was drawn into PAXgene blood tubes at the indicated time points and stored at −70° C. until use. Total RNA was isolated from whole blood and treated with DNase using the PAXgene Blood miRNA Kit (Quiagen). This was followed by reverse transcription of mRNA into cDNA and amplification of host immune response genes by real time PCR. Woodchuck cytokine and interferon-stimulated genes included IFN-α, IFN-β, interleukin 6 (IL-6), 2′-5′-oligoadenylate synthetase 1 (OAS-1), interferon-induced 17 kDa protein (ISG15), and interferon gamma-induced protein 10 (IP-10or CXCL10). Woodchuck 18S rRNA expression was used to normalize target gene expression. […]

[4] = Plasma levels by LC-MS after oral Formula (IIa) (Example 2); assay type: in vivo, woodchuck (Marmota monax); conditions: 15 and 30 mg/kg oral, approximately 2 hours post-dose
Protocol: Plasma levels of Formula (Ia) were evaluated at pretreatment (T0) and then bi-weekly throughout the study at approximately 2 hours post-dose. Woodchuck plasma was analyzed by LC-MS and quantified using isotopically enriched internal standards.

[5] = 15 and 30 mg/kg, all treated woodchucks
[6] = 30 mg/kg daily oral, week 12, Group 2 before add-on ETV

COC1[C@@H](OP(=O)(OC[C@H]2O[C@@H](n3cnc4c(N)ncnc43)C[C@H]2O)SCOC(=O)OC(C)C)[C@@H](CO)O[C@H]1n1ccc(=O)[nH]c1=O (some centres unmarked) [Formula (IIa)]
liver HBV DNA [1]: significant reduction | seroconversion to anti-WHs antibodies and anti-WHe antibodies ([2]; 15 and 30 mg/kg, 12 weeks): not observed | hepatic expression scores of cytoplasmic WHcAg from pretreatment level [2, 5]: dose-dependent, transient reductions | scores of liver inflammation during the 12-week treatment period [2, 5]: unchanged or even reduced | delay in WHsAg rebound, high dose versus low dose ([2]; high dose 30 mg/kg): 1-7 week | delay in relapse of serum WHV DNA, high dose versus low dose ([2]; high dose 30 mg/kg): 2-4 weeks | time for serum WHV DNA to return to pretreatment level after withdrawal ([2]; high dose 30 mg/kg): 5-7 weeks | time for serum WHsAg to return to pretreatment level after the end of treatment ([2]; high dose 30 mg/kg): 6-8 weeks | weeks per approximately 1 log10 decline of serum WHV DNA ([2]; high dose 30 mg/kg daily oral): ~3 weeks | average reduction of serum WHV DNA at the end of treatment ([2]; high dose 30 mg/kg daily oral): 3.7 log10 | maximum reduction of hepatic WHV DNA RI from pretreatment level ([2]; high dose 30 mg/kg): 38% | maximum reduction of hepatic WHV RNA from pretreatment level ([2]; high dose 30 mg/kg): 45% | maximum reduction of hepatic WHV cccDNA from pretreatment level ([2]; high dose 30 mg/kg): 25% | maximum reduction of serum WHsAg ([2]; high dose 30 mg/kg): 1.6 log10 | time for serum WHV DNA to return to pretreatment level after withdrawal ([2]; low dose 15 mg/kg): 3-5 weeks | time for serum WHsAg to return to pretreatment level after completion of treatment ([2]; low dose 15 mg/kg): 1-5 weeks | weeks per approximately 1 log10 decline of serum WHV DNA ([2]; low dose 15 mg/kg daily oral): ~6 weeks | average reduction of serum WHV DNA at the end of treatment ([2]; low dose 15 mg/kg daily oral): 2.2 log10 | maximum reduction of hepatic WHV DNA RI from pretreatment level ([2]; low dose 15 mg/kg): 19% | maximum reduction of hepatic WHV RNA from pretreatment level ([2]; low dose 15 mg/kg): 22% | maximum reduction of hepatic WHV cccDNA from pretreatment level ([2]; low dose 15 mg/kg): 16% | maximum reduction of serum WHsAg ([2]; low dose 15 mg/kg): 0.5 log10 | decline of serum WHsAg until the end of Formula (IIa) treatment [3, 6]: 1.49 log 10 | reduction of mean serum WHV DNA from pretreatment level at the end of Formula (IIa) treatment [3, 6]: 3.54 log 10 | weeks per approximately 1 log10 decline of serum WHV DNA ([3]; Formula (IIa) 30 mg/kg, initial 6 weeks of treatment, Group 2): ~3 weeks | plasma exposure following oral administration [4]: dose-dependent
